Columns and labels:
ERα = ERα (Homo sapiens (Human), UniProt P03372); assay: Degradation effect of compounds on ERα in MCF-7 and CAMA-1 cells (automated western blot, 24 h); type: cell-based; settings: ERα degradation in MCF-7 cells; for DC50: 24 hours; for Dmax at 0.1 µM: MCF7, @100 nM
Description: 2. Degradation Effect of Compounds on ERα in MCF-7 and CAMA-1 Cells
Breast cancer cells MCF-7 and CAMA-1 were purchased from ATCC, the cell media were all EMEM+10% FBS, and the cells were cultured in an incubator at 37° C. under 5% CO2. On the first day, the cells in an exponential phase were collected. With a 10% css-FBS phenol red-free medium, the cell suspension was adjusted to a corresponding concentration, plated at 300000 cells/well and incubated for 3 days. After 3 days, the liquid in the well was aspirated, and a 10% css-FBS phenol red-free medium containing the compound to be tested was added and cultured in an incubator at 37° C. under 5% CO2. After 24 hours, 60 μl of RIPA lysis solution (containing 1× protease inhibitor cocktail) was added to each well, lysed on ice for 15 minutes, and then centrifuged at 4° C. for 10 minutes at 12000 g. The supernatant protein samples were collected, and protein quantification was performed by a BCA method. ERα was detected using fully automatic protein expression quantitative analysis, which involved diluting the protein to be tested to 1.5 mg/mL. 4 μL of the diluted protein samples were added to 1 μL of 5×Master Mix (provided in the kit), and the prepared samples were denatured at 95° C. for 5 min and placed on ice for use. Antibody Diluent II (provided in the kit) was used to dilute the primary antibody, in which the dilution ratios of ERα (CST, 13258S) and β-actin (CST, 3700) antibodies were 1:40 and 1:500, respectively, the secondary antibody was a 1:1 mixture of goat anti-mouse and goat anti-rabbit secondary antibodies, and the chromogenic solution was a 1:1 mixture of Lumino-S and Peroxide. The prepared reagents were successively added to an assay plate according to instructions of the kit and detected on an instrument. Western blot band processing was performed using “Compass for SW”, a fully automatic protein expression quantitative analysis software, in which western blot bands were automatically simulated based on signal values. The proportion of ERα relative to the solvent control at different drug concentrations according to equation (1), wherein Acompound was the relative peak area of ERα in the treated group, and Asolvent was the relative peak area of ERα in the solvent control group.
ERα%=Acompound/Asolvent×100 equation (1)
DC50 calculation: Calculation was performed according to equation (1), and using Graphpad Prism 8.0 software, the compound concentration DC50 values at which the degradation rate of ERα was 50% were calculated using a non-linear four-parameter function (Non linear regression (curve fit)) (Table 1).

MCF-7 cells = assay: Inhibitory effect of compounds on the proliferation of MCF-7 cells (CellTiter-Glo, 7 days); type: cell-based; settings: Homo sapiens, MCF7, 168 h, 7 days incubation
Description: 1. Inhibitory Effect of Compounds on the Proliferation of MCF-7 Cells
Breast cancer cells MCF-7 were purchased from ATCC, the cell media were all EMEM+10% FBS, and the cells were cultured in an incubator at 37° C. under 5% CO2. On the first day, cells in the exponential growth phase were collected and cultured in a 10% css-FBS phenol red-free medium without cytokines for 3 days. After the completion of culture, a 10% css-FBS phenol red-free medium was used to adjust the cell suspension to the corresponding concentration and same was plated to 1000 cells/well. P-estradiol and compounds of different concentrations were added. A plate without adding any reagent was taken and used as Day0 with a reading value RLUday0, determined with CellTiter-Glo kit, placed in an incubator and incubated for 7 days. After the incubation was completed, according to operation instructions for a CellTiter-Glo kit (Promega, G7573), 50 μL of CellTiter-Glo solutions, which were pre-melted and equilibrated to room temperature, were added to each well, and the mixtures were uniformly mixed for 2 min using a microplate shaker. The plate was placed at room temperature for 10 min, and then […] signal values were measured using a microplate reader (PHERAstar FSX). Chemiluminescence readouts were processed using origin9.2 software and the DoseResp function was used to calculate the GIsovalue for the inhibitory activity of compounds on the proliferation of cells (Table 1). The results were processed according to equation (1), the inhibition rate of the compound at different concentrations was calculated, and the GI50 value of the compound with a proliferation rate of 50% was calculated using origin9.2 software, wherein RLUcompound was the readout of the treated group, and RLUcontrol was the average value of the solvent control group.
Growth %=(RLUcompound−RLUday0)/(RLUcontrol−RLUday0)×100 equation (1)

ER = settings: clinical samples; cited from earlier work

Sequence of ERα (P03372 whole entry): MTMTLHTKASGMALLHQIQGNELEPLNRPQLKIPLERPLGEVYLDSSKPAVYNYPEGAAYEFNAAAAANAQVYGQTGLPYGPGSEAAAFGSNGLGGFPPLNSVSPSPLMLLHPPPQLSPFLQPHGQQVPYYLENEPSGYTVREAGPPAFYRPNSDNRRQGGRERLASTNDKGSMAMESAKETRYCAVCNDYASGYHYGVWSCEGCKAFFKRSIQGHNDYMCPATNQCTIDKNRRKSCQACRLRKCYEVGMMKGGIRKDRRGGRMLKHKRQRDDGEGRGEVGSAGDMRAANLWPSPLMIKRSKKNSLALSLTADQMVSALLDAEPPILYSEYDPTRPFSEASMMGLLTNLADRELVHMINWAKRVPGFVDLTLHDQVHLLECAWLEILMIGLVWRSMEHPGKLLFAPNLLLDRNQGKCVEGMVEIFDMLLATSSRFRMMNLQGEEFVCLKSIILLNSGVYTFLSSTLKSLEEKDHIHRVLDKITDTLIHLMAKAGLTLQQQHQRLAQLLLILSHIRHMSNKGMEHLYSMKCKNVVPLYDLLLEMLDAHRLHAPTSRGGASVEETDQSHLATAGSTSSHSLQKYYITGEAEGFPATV

SMILES	DC50 (ERα) [nM]	Dmax at 0.1 µM (ERα) [%]	GI50 (MCF-7 cells) [nM]	ER degradation (ER)
CC1Cc2c([nH]c3cc4c(cc23)CC4)C(c2c(F)cc(NC3CN(CCCF)C3)cc2F)N1CC(F)(F)F (single isomer, unassigned) [Compound 22-1, N-(3,5-difluoro-4-(3-methyl-2-(2,2,2-trifluoroethyl)-2,3,4,6,7,9-hexahydro-1H-cyclobuta[f]pyrido[3,4-b]indol-1-yl)phenyl)-1-(3-fluoropropyl)azetidin-3-amine]	1.13	69		
Cc1ccc2c3c([nH]c2c1)[C@@H](c1c(F)cc(N[C@H]2CCN(CCCF)C2)cc1F)N(CC(F)(F)CO)[C@H](C)C3 [Compound 8, 3-((1R,3R)-1-(2,6-difluoro-4-(((S)-1-(3-fluoropropyl)pyrrolidin-3-yl)amino)phenyl)-3,7-dimethyl-1,3,4,9-tetrahydro-2H-pyrido[3,4-b]indol-2-yl)-2,2-difluoropropan-1-ol]	0.594	70		
C[C@@H]1Cc2c([nH]c3cccc(F)c23)[C@@H](c2c(F)cc(N[C@H]3CCN(CCCF)C3)cc2F)N1CC(F)(F)CO [Compound 15, 3-((1R,3R)-1-(2,6-difluoro-4-(((S)-1-(3-fluoropropyl)pyrrolidin-3-yl)amino)phenyl)-5-fluoro-3-methyl-1,3,4,9-tetrahydro-2H-pyrido[3,4-b]indol-2-yl)-2,2-difluoropropan-1-ol]	0.447	72		
C[C@@H]1Cc2c([nH]c3cc(F)ccc23)[C@@H](c2c(F)cc(N[C@H]3CCN(CCCF)C3)cc2F)N1CC(F)(F)CO [Compound 31, 3-((1R,3R)-1-(2,6-difluoro-4-(((S)-1-(3-fluoropropyl)pyrrolidin-3-yl)amino)phenyl)-7-fluoro-3-methyl-1,3,4,9-tetrahydro-2H-pyrido[3,4-b]indol-2-yl)-2,2-difluoropropan-1-ol]	0.244	77		
C[C@]12CC[C@@H]3c4ccc(O)cc4C[C@@H](CCCCCCCCC[S+]([O-])CCCC(F)(F)C(F)(F)F)[C@H]3[C@@H]1CC[C@@H]2O (some centres unmarked) [Fulvestrant]				approximately 50%

Second part, led by results:

DC50 (ERα) [nM]	Dmax at 0.1 µM (ERα) [%]	GI50 (MCF-7 cells) [nM]	SMILES	ER degradation (ER)
0.269	68	< 0.026	C[C@@H]1Cc2c([nH]c3cc(F)c(F)cc23)[C@@H](c2c(F)cc(N[C@H]3CCN(CCCF)C3)cc2F)N1CC(F)(F)CO [Compound 35, 3-((1R,3R)-1-(2,6-difluoro-4-(((S)-1-(3-fluoropropyl)pyrrolidin-3-yl)amino)phenyl)-6,7-difluoro-3-methyl-1,3,4,9-tetrahydro-2H-pyrido[3,4-b]indol-2-yl)-2,2-difluoropropan-1-ol]	
1.7	72	< 0.026	C[C@@H]1Cc2c([nH]c3ccc(F)cc23)[C@@H](c2c(F)cc(N[C@H]3CCN(CCCF)C3)cc2F)N1CC(F)(F)CF [Compound 38, (S)—N-(3,5-difluoro-4-((1R,3R)-6-fluoro-3-methyl-2-(2,2,3-trifluoropropyl)-2,3,4,9-tetrahydro-1H-pyrido[3,4-b]indol-1-yl)phenyl)-1-(3-fluoropropyl)pyrrolidin-3-amine]	
0.726	70	< 0.026	Cc1ccc2[nH]c3c(c2c1)C[C@@H](C)N(CC(F)(F)CO)[C@@H]3c1c(F)cc(N[C@H]2CCN(CCCF)C2)cc1F [Compound 49, 3-((1R,3R)-1-(2,6-difluoro-4-(((S)-1-(3-fluoropropyl)pyrrolidin-3-yl)amino)phenyl)-3,6-dimethyl-1,3,4,9-tetrahydro-2H-pyrido[3,4-b]indol-2-yl)-2,2-difluoropropan-1-ol]	
0.712	68		C#Cc1ccc2c3c([nH]c2c1)[C@@H](c1c(F)cc(NC2CN(CCCF)C2)cc1F)N(CC(F)(F)F)[C@H](C)C3 [Compound 51, N-(4-((1R,3R)-7-ethynyl-3-methyl-2-(2,2,2-trifluoroethyl)-2,3,4,9-tetrahydro-1H-pyrido[3,4-b]indol-1-yl)-3,5-difluorophenyl)-1-(3-fluoropropyl)azetidin-3-amine]	

Reference: patent publication US20240208932A1, “ARYLAMINO DERIVATIVE ESTROGEN RECEPTOR MODULATOR AND USE THEREOF” (XIZANG HAISCO PHARMACEUTICAL CO., LTD., priority 2021, published 2024)
